The test system of assay [1] is Vero. The assay can be described thus: Cytotoxicity against African green monkey Vero cells. The conditions noted are these: Chlorocebus sabaeus. The format is cell-based.
The test system of assay [2] is Mycobacterium tuberculosis. The assay is described as follows: Antitubercular activity against Mycobacterium tuberculosis H37Ra. The format is functional.
In assay [3] the test system is Vero. The assay can be described thus: Cytotoxicity against African green monkey Vero cells by GFP based microplate assay. The format is cell-based. The conditions noted are these: Chlorocebus sabaeus.
The subject of assay [4] is Mycobacterium tuberculosis. The assay can be described thus: Antitubercular activity against Mycobacterium tuberculosis H37Ra by GFP based microplate assay. The format is functional.

pIC50: −log10 of the molar value. In brackets after ≈: the same amount, converted by molar mass.

With `CO[C@@H]1C[C@H]2C(C)(C)[C@@H](OC(C)=O)CC[C@]2(C)C2=C1[C@]1(C)[C@@H](O)C[C@H]([C@H](C)[C@H](C/C=C(\C)C(=O)O)OC(C)=O)[C@@]1(C)CC2`, the pIC50 in assay [1] is 4.49. The same compound registered a minimal inhibitory concentration (MIC) in assay [2] of 50 µg/mL (≈ 82.9 µM).
Take `CC(=O)O[C@H]1C[C@H]([C@H](C)CC/C=C(\C)C(=O)O)[C@@]2(C)CC=C3C(=CC[C@H]4C(C)(C)[C@H](O)CC[C@]34C)[C@]12C`: the negative-log IC50 (pIC50) in assay [3] was 4.03. Further, the MIC in assay [4] is 25 µg/mL (≈ 48.8 µM).
Turning to `CC(=O)O[C@@H](C/C=C(\C)C(=O)O)[C@@H](C)[C@H]1CC[C@@]2(C)C3=C(CC[C@]12C)[C@@]1(C)CC[C@@H](O)C(C)(C)[C@@H]1CC3=O`, the pIC50 in assay [3] was 4.02. In addition, it took 50 µg/mL (≈ 94.6 µM) to inhibit growth in assay [4] (MIC).
The corresponding values for `CC(=O)O[C@H]1CC[C@]2(C)C3=C([C@H](O)C[C@H]2C1(C)C)[C@]1(C)[C@@H](O)C[C@H]([C@H](C)CC/C=C(\C)C(=O)O)[C@@]1(C)CC3` are 4.41 and 50 µg/mL (≈ 94.2 µM).
The matching figures for `CC(=O)O[C@@H]1C[C@H]2C(C)(C)C(=O)CC[C@]2(C)C2=C1[C@]1(C)[C@@H](O)C[C@H]([C@H](C)CC/C=C(\C)C(=O)O)[C@@]1(C)CC2`: less than 4.02 and 25 µg/mL (≈ 47.3 µM).
For `CC(=O)O[C@H]1CC[C@]2(C)C3=C([C@H](OC(C)=O)C[C@H]2C1(C)C)[C@]1(C)[C@@H](O)C[C@H]([C@H](C)CC/C=C(\C)C(=O)O)[C@@]1(C)CC3`, in assay [3], the pIC50 was 4.51. Besides, the MIC in assay [4] was determined as 25 µg/mL (≈ 43.6 µM).
With `CC(=O)O[C@@H](C/C=C(\C)C(=O)O)[C@@H](C)[C@H]1CC[C@@]2(C)C3=C(CC[C@]12C)[C@@]1(C)CC[C@H](O)C(C)(C)[C@@H]1CC3=O`, the pIC50 in assay [3] was 4.06. 1.56 µg/mL (≈ 2.95 µM) was the least that counted as inhibitory in assay [4] (MIC).
The matching figures for `C/C(=C\C[C@H](O)[C@@H](C)[C@H]1CC[C@@]2(C)C3=C(CC[C@]12C)[C@@]1(C)CCC(=O)C(C)(C)[C@@H]1CC3)C(=O)O`: 3.98 and 50 µg/mL (≈ 106 µM).
The compound `CO[C@@H]1C[C@H]2C(C)(C)C(=O)CC[C@]2(C)C2=C1[C@]1(C)CC[C@H]([C@H](C)CC/C=C(\C)C(=O)O)[C@@]1(C)CC2` had a pIC50 in assay [3] of less than 3.99. Besides, the MIC in assay [4] worked out at 25 µg/mL (≈ 51.6 µM).
With `CC(=O)O[C@H]1CC[C@]2(C)C3=C(C(=O)C[C@H]2C1(C)C)[C@]1(C)[C@@H](O)C[C@H]([C@H](C)CC/C=C(\C)C(=O)O)[C@@]1(C)CC3`, in assay [3], the pIC50 was 4.04. This compound also registered a minimum inhibitory concentration (MIC) in assay [4] of 50 µg/mL (≈ 94.6 µM).
The matching figures for `CC(=O)O[C@H]1C[C@H]([C@H](C)CC/C=C(\C)C(=O)O)[C@@]2(C)CC=C3C(=CC[C@H]4C(C)(C)C(=O)CC[C@]34C)[C@]12C`: less than 4.01 and 12.5 µg/mL (≈ 24.5 µM).
The compound `CC(=O)O[C@@H](C/C=C(\C)C(=O)O)[C@@H](C)[C@H]1CC[C@@]2(C)C3=C(CC[C@]12C)[C@@]1(C)CC[C@H](OC(C)=O)C(C)(C)[C@@H]1C[C@H]3O` showed a negative logarithm of the IC50 (pIC50) in assay [3] of 4.08. In assay [4], this compound returned an MIC of 25 µg/mL (≈ 43.6 µM).
The corresponding values for `CO[C@@H]1C[C@H]2C(C)(C)[C@@H](OC(C)=O)CC[C@]2(C)C2=C1[C@]1(C)[C@@H](OC(C)=O)C[C@H]([C@H](C)CC/C=C(\C)C(=O)O)[C@@]1(C)CC2` are 4.52 and 3.13 µg/mL (≈ 5.33 µM).
The matching figures for `CC(=O)O[C@H]1C[C@H]([C@H](C)CC/C=C(\C)C(=O)O)[C@@]2(C)CCC3=C(CC[C@H]4C(C)(C)[C@@H](O)CC[C@]34C)[C@]12C`: less than 4.02 and 12.5 µg/mL (≈ 24.3 µM).
The corresponding values for `CC(=O)O[C@@H](C/C=C(\C)C(=O)O)[C@@H](C)[C@H]1CC[C@@]2(C)C3=C(CC[C@]12C)[C@@]1(C)CC[C@H](OC(C)=O)C(C)(C)[C@@H]1CC3=O` are 4.49 and 6.25 µg/mL (≈ 11 µM).
`CO[C@@H]1C[C@H]2C(C)(C)[C@H](OC(C)=O)CC[C@]2(C)C2=C1[C@]1(C)CC[C@H]([C@H](C)[C@H](C/C=C(\C)C(=O)O)OC(C)=O)[C@@]1(C)CC2` gave a pIC50 in assay [3] of 4.42. In assay [4], this compound came in with an MIC of 50 µg/mL (≈ 85.2 µM).
In the case of `CC(=O)O[C@@H](C/C=C(\C)C(=O)O)[C@@H](C)[C@H]1C[C@H](O)[C@@]2(C)C3=C(CC[C@]12C)[C@@]1(C)CC[C@H](OC(C)=O)C(C)(C)[C@@H]1C[C@H]3OC(C)=O`, in assay [3], the pIC50 is 4.11. The compound also yielded an MIC in assay [4] of 12.5 µg/mL (≈ 19.8 µM).
In turn, `CC(=O)O[C@@H](C/C=C(\C)C(=O)O)[C@@H](C)[C@H]1C[C@H](O)[C@@]2(C)C3=CC[C@H]4C(C)(C)[C@@H](O)CC[C@]4(C)C3=CC[C@]12C` had a negative logarithm of the IC50 (pIC50) in assay [3] of 4.02. In assay [4], this compound showed an MIC of 6.25 µg/mL (≈ 11.8 µM).
The compound `CC(=O)O[C@@H](C/C=C(\C)C(=O)O)[C@@H](C)[C@H]1C[C@H](O)[C@@]2(C)C3=C(CC[C@]12C)[C@@]1(C)CCC(=O)C(C)(C)[C@@H]1C[C@H]3O` showed a pIC50 in assay [3] of less than 4.04. The minimal inhibitory concentration (MIC) in assay [4] was more than 50 µg/mL.
The compound `CC(=O)O[C@H]1CC[C@]2(C)C3=CC[C@]4(C)[C@@H]([C@H](C)CC/C=C(\C)C(=O)O)CC[C@@]4(C)C3=CC[C@H]2C1(C)C` showed a pIC50 in assay [3] of less than 4.00. The MIC in assay [4] is more than 50 µg/mL.
The corresponding values for `CO[C@@H]1C[C@H]2C(C)(C)C(=O)CC[C@]2(C)C2=C1[C@]1(C)[C@@H](OC(C)=O)C[C@H]([C@H](C)[C@H](C/C=C(\C)C(=O)O)OC(C)=O)[C@@]1(C)CC2` are less than 4.08 and more than 50 µg/mL.
The corresponding values for `CC(=O)O[C@H]1C[C@H]([C@H](C)CC/C=C(\C)C(=O)O)[C@@]2(C)CCC3=C(CC[C@H]4C(C)(C)C(=O)CC[C@]34C)[C@]12C` are less than 4.01 and 50 µg/mL (≈ 97.5 µM).
In turn, `CC(=O)O[C@@H](C/C=C(\C)C(=O)O)[C@@H](C)[C@H]1C[C@H](OC(C)=O)[C@@]2(C)C3=CC[C@H]4C(C)(C)[C@@H](O)CC[C@]4(C)C3=CC[C@]12C` gave a negative logarithm of the IC50 (pIC50) in assay [3] of 4.48. This compound also showed a minimal inhibitory concentration (MIC) in assay [4] of more than 50 µg/mL.
The matching figures for `C/C(=C\CC[C@@H](C)[C@H]1CC[C@@]2(C)C3=C(CC[C@]12C)[C@@]1(C)CCC(=O)C(C)(C)[C@@H]1C[C@H]3O)C(=O)O`: 3.99 and 3.13 µg/mL (≈ 6.65 µM).
The corresponding values for `CC(=O)O[C@H]1CC[C@]2(C)C3=CC[C@]4(C)[C@@H]([C@H](C)CC/C=C(\C)C(=O)O)C[C@H](O)[C@@]4(C)C3=CC[C@H]2C1(C)C` are 4.89 and 6.25 µg/mL (≈ 12.2 µM).
`CC(=O)O[C@H]1C[C@H]([C@H](C)CC/C=C(\C)C(=O)O)[C@@]2(C)CCC3=C([C@H](O)C[C@H]4C(C)(C)C(=O)CC[C@]34C)[C@]12C`: the pIC50 in assay [3] was less than 4.02. Besides, inhibition of growth in assay [4] (MIC) required 50 µg/mL (≈ 94.6 µM).
On to `CO[C@@H]1C[C@H]2C(C)(C)[C@H](OC(C)=O)CC[C@]2(C)C2=C1[C@]1(C)[C@@H](OC(C)=O)C[C@H]([C@H](C)[C@H](C/C=C(\C)C(=O)O)OC(C)=O)[C@@]1(C)CC2`, for which the pIC50 in assay [3] is 4.59. This compound also gave an MIC in assay [4] of 12.5 µg/mL (≈ 19.4 µM).
Take `CC(=O)O[C@@H](C/C=C(\C)C(=O)O)[C@@H](C)[C@H]1C[C@H](OC(C)=O)[C@@]2(C)C3=C(CC[C@]12C)[C@@]1(C)CC[C@@H](OC(C)=O)C(C)(C)[C@@H]1C[C@H]3O`: in assay [3], the negative-log IC50 (pIC50) is 4.55. This compound registered an MIC in assay [4] of 12.5 µg/mL (≈ 19.8 µM).
Regarding `CO[C@@H]1C[C@H]2C(C)(C)[C@H](OC(C)=O)CC[C@]2(C)C2=C1[C@]1(C)[C@@H](O)C[C@H]([C@H](C)CC/C=C(\C)C(=O)O)[C@@]1(C)CC2`, in assay [3], the negative-log IC50 (pIC50) is 4.06. In assay [4], the MIC was 50 µg/mL (≈ 91.8 µM).
The matching figures for `CC(=O)O[C@@H](C/C=C(\C)C(=O)O)[C@@H](C)[C@H]1CC[C@@]2(C)C3=CC[C@H]4C(C)(C)[C@H](OC(C)=O)CC[C@]4(C)C3=CC[C@]12C`: 4.49 and 50 µg/mL (≈ 90.1 µM).
The corresponding values for `CO[C@@H]1C[C@H]2C(C)(C)[C@H](OC(C)=O)CC[C@]2(C)C2=C1[C@]1(C)[C@@H](OC(C)=O)C[C@H]([C@H](C)CC/C=C(\C)C(=O)O)[C@@]1(C)CC2` are less than 4.07 and 50 µg/mL (≈ 85.2 µM).
With `CC(=O)O[C@@H](C/C=C(\C)C(=O)O)[C@@H](C)[C@H]1C[C@H](O)[C@@]2(C)C3=C(CC[C@]12C)[C@@]1(C)CC[C@H](OC(C)=O)C(C)(C)[C@@H]1C[C@H]3O`, in assay [3], the pIC50 is 4.08. The compound also had an MIC in assay [4] of 12.5 µg/mL (≈ 21.2 µM).
The corresponding values for `CC(=O)O[C@H]1CC[C@]2(C)C3=CC[C@]4(C)[C@@H]([C@H](C)CC/C=C(\C)C(=O)O)C[C@H](OC(C)=O)[C@@]4(C)C3=CC[C@H]2C1(C)C` are 4.49 and 0.391 µg/mL (≈ 0.705 µM).
Consider `CC(=O)O[C@@H](C/C=C(\C)C(=O)O)[C@@H](C)[C@H]1C[C@H](OC(C)=O)[C@@]2(C)C3=CC[C@H]4C(C)(C)C(=O)CC[C@]4(C)C3=CC[C@]12C`, for which, in assay [3], the negative-log IC50 (pIC50) was 4.06. This compound returned an MIC in assay [4] of 25 µg/mL (≈ 44 µM).

As a reminder, the pIC50 is −log10 of the IC50, conventionally taken in molar units. What is called MIC is the smallest concentration in the dilution series that meets the test's criterion for growth inhibition.

The record behind these values is ChEMBL document CHEMBL4118056, “Antitubercular Activity of Mycelium-Associated Ganoderma Lanostanoids” (J Nat Prod, 2017).
